Results from PMC6001238, “Iterative Chemical Engineering of Vancomycin Leads to Novel Vancomycin Analogs With a High in Vitro Therapeutic Index” (Frontiers in Microbiology, 2018).
Converted amounts (≈) assume the structure as drawn.

Experiments:
MRSA KS89 = assay: MIC, broth microdilution, MRSA KS89; type: cell-based, Staphylococcus aureus; conditions: for MIC-fold improvement vs. vancomycin: MRSA KS8, ratio of MIC of vancomycin and MIC of analogue; for MIC: Staphylococcus aureus MRSA KS8, read-out: MIC
In short: (§1)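 Read-out: lowest concentration inhibiting growth in broth microdilution, CLSI method. Water and broth-only wells acted as controls; in one case 10 μM vancomycin (final) was present with the compound.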

MRSA KS2 = assay: MIC, broth microdilution, MRSA KS2; type: cell-based, Staphylococcus aureus; conditions: for MIC-fold improvement vs. vancomycin: MRSA KS2, ratio of MIC of vancomycin and MIC of analogue; for MIC: Staphylococcus aureus MRSA KS2, read-out: MIC
In short: as §1

E. faecalis VRE 37 = assay: MIC, broth microdilution, vancomycin-resistant E. faecalis VRE 37 (VanA); type: cell-based, Enterococcus faecalis; conditions: for MIC: Enterococcus faecalis VRE 37 (vancomycin-resistant), read-out: MIC; for MIC-fold improvement vs. vancomycin: VRE 37, ratio of MIC of vancomycin and MIC of analogue
In short: as §1

E. faecalis VRE 6 = assay: MIC, broth microdilution, vancomycin-resistant E. faecalis VRE 6 (VanA); type: cell-based, Enterococcus faecalis; conditions: for MIC: Enterococcus faecalis VRE 6 (vancomycin-resistant), read-out: MIC; for MIC-fold improvement vs. vancomycin: VRE 6, ratio of MIC of vancomycin and MIC of analogue
In short: as §1

[1] = test system: S. aureus VSSA (ATCC 6538); assay: MIC, broth microdilution, vancomycin-sensitive S. aureus (VSSA/MSSA, ATCC 6538); type: cell-based, Staphylococcus aureus; conditions: for MIC: Staphylococcus aureus VSSA, read-out: MIC; for MIC-fold improvement vs. vancomycin: VSSA, ratio of MIC of vancomycin and MIC of analogue
In short: as §1

[2] = test system: L1210, CEM and HeLa cell lines; assay: Cytostatic activity, average or summary over L1210, CEM and HeLa; type: cell-based; conditions: average of L1210, CEM and HeLa; read-out: Toxicity (IC50) Average
In short: (§2)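 Coulter counter cell counts after 37°C culture with compound; IC50 = concentration giving 50% growth inhibition vs negative control. Incubation: L1210 2 d, CEM 3 d, HeLa 4 d. Suspension density before mixing with an equal volume of dilution: 300,000–500,000 cells/mL.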

MRSA KS1 = assay: MIC, broth microdilution, MRSA KS1; type: cell-based, Staphylococcus aureus; conditions: for MIC-fold improvement vs. vancomycin: MRSA KS1, ratio of MIC of vancomycin and MIC of analogue; for MIC: Staphylococcus aureus MRSA KS1, read-out: MIC
In short: as §1

S. aureus VRSA = assay: MIC, broth microdilution, vancomycin-resistant S. aureus (VRSA); type: cell-based, Staphylococcus aureus; conditions: for MIC: Staphylococcus aureus VRSA, read-out: MIC; for MIC-fold improvement vs. vancomycin: VRSA, ratio of MIC of vancomycin and MIC of analogue
In short: as §1

[3] = test system: human cervix carcinoma (HeLa) cells; assay: Cytostatic activity, HeLa cell proliferation; type: cell-based; conditions: mean ± SD of three experiments; highest concentration tested 250 µM; 4 days; read-out: Toxicity (IC50) HeLa
In short: as §2

E. faecalis VRE 29 = assay: MIC, broth microdilution, vancomycin-resistant E. faecalis VRE 29 (VanA); type: cell-based, Enterococcus faecalis; conditions: for MIC: Enterococcus faecalis VRE 29 (vancomycin-resistant), read-out: MIC; for MIC-fold improvement vs. vancomycin: VRE 29, ratio of MIC of vancomycin and MIC of analogue
In short: as §1

[4] = test system: human T-lymphocyte (CEM) cells; assay: Cytostatic activity, CEM cell proliferation; type: cell-based; conditions: mean ± SD of three experiments; highest concentration tested 250 µM; 3 days; read-out: Toxicity (IC50) CEM
In short: as §2

[5] = test system: Murine leukemia (L1210) cells; assay: Cytostatic activity, L1210 cell proliferation; type: cell-based; conditions: mean ± SD of three experiments; highest concentration tested 250 µM; 2 days; read-out: Toxicity (IC50) L1210
In short: as §2

E. faecalis VSE 1 = assay: MIC, broth microdilution, vancomycin-sensitive E. faecalis (VSE 1); type: cell-based, Enterococcus faecalis; conditions: for MIC: Enterococcus faecalis VSE 1 (vancomycin-sensitive), read-out: MIC; for MIC-fold improvement vs. vancomycin: VSE 1, ratio of MIC of vancomycin and MIC of analogue
In short: as §1

S. aureus VISA/HIP5827 = assay: MIC, broth microdilution, vancomycin-intermediate S. aureus VISA HIP5827; type: cell-based, Staphylococcus aureus; conditions: for MIC: Staphylococcus aureus VISA/HIP5827, read-out: MIC; for MIC-fold improvement vs. vancomycin: VISA/HIP5827, ratio of MIC of vancomycin and MIC of analogue
In short: as §1

E. faecalis VRE 53 = assay: MIC, broth microdilution, vancomycin-resistant E. faecalis VRE 53 (VanA); type: cell-based, Enterococcus faecalis; conditions: for MIC: Enterococcus faecalis VRE 53 (vancomycin-resistant), read-out: MIC; for MIC-fold improvement vs. vancomycin: VRE 53, ratio of MIC of vancomycin and MIC of analogue
In short: as §1

MRSA KS6 = assay: MIC, broth microdilution, MRSA KS6; type: cell-based, Staphylococcus aureus; conditions: for MIC-fold improvement vs. vancomycin: MRSA KS6, ratio of MIC of vancomycin and MIC of analogue; for MIC: Staphylococcus aureus MRSA KS6, read-out: MIC
In short: as §1

Row | MIC-fold improvement vs. vancomycin (MRSA KS89) | MIC (MRSA KS89) | MIC-fold improvement vs. vancomycin (MRSA KS2) | MIC (MRSA KS2) | MIC (E. faecalis VRE 37) | MIC (E. faecalis VRE 6) | MIC-fold improvement vs. vancomycin (E. faecalis VRE 6) | MIC [1] | MIC-fold improvement vs. vancomycin [1] | MIC-fold improvement vs. vancomycin (MRSA KS1) | MIC (MRSA KS1) | MIC (S. aureus VRSA) | MIC-fold improvement vs. vancomycin (S. aureus VRSA) | MIC (E. faecalis VRE 29) | MIC-fold improvement vs. vancomycin (E. faecalis VRE 29) | MIC (E. faecalis VSE 1) | SMILES | IC50 [2] | IC50 [3] | IC50 [4] | IC50 [5] | further results
1 | 4 | 0.20 µM (≈ 0.348 µg/mL) | 4 | 0.20 µM (≈ 0.348 µg/mL) | 3.13 µM (≈ 5.44 µg/mL) | 1.56 µM (≈ 2.71 µg/mL) | 128 | 0.39 µM (≈ 0.678 µg/mL) | 2 | >8 | <0.10 µM | 0.78 µM (≈ 1.36 µg/mL) | 128 | 3.13 µM (≈ 5.44 µg/mL) | 128 | 0.78 µM (≈ 1.36 µg/mL) | CNC(CC(C)C)C(=O)NC1C(=O)NC(CC(N)=O)C(=O)NC2C(=O)NC3C(=O)NC(C(=O)NC(C(=O)NCC(=O)Nc4ccc(-c5cn(-c6ccc(C)cc6)nn5)cc4)c4cc(O)cc(O)c4-c4cc3ccc4O)C(O)c3ccc(c(Cl)c3)Oc3cc2cc(c3OC2OC(CO)C(O)C(O)C2OC2CC(C)(N)C(O)C(C)O2)Oc2ccc(cc2Cl)C1O (centres unmarked) [Vanc-76] | 10 µM | 17 ± 2 µM | 3.2 ± 0.6 µM | 11 ± 7 µM | MIC-fold improvement vs. vancomycin (E. faecalis VRE 37): 128; MIC-fold improvement vs. vancomycin (E. faecalis VSE 1): 2; MIC (S. aureus VISA/HIP5827): 0.78 µM (≈ 1.36 µg/mL); MIC-fold improvement vs. vancomycin (S. aureus VISA/HIP5827): 8; MIC (E. faecalis VRE 53): 3.13 µM (≈ 5.44 µg/mL); MIC-fold improvement vs. vancomycin (E. faecalis VRE 53): 128; MIC-fold improvement vs. vancomycin (MRSA KS6): 4; MIC (MRSA KS6): 0.20 µM (≈ 0.348 µg/mL)
2 | 2 | 0.39 µM (≈ 0.713 µg/mL) | 4 | 0.20 µM (≈ 0.366 µg/mL) | 6.25 µM (≈ 11.4 µg/mL) | 3.13 µM (≈ 5.72 µg/mL) | 64 | 0.39 µM (≈ 0.713 µg/mL) | 2 | 1 | 0.78 µM (≈ 1.43 µg/mL) | 0.39 µM (≈ 0.713 µg/mL) | 256 | 6.25 µM (≈ 11.4 µg/mL) | 64 | 0.39 µM (≈ 0.713 µg/mL) | CNC(CC(C)C)C(=O)NC1C(=O)NC(CC(N)=O)C(=O)NC2C(=O)NC3C(=O)NC(C(=O)NC(C(=O)NCCCNC(=O)c4ccc5cc(NS(=O)(=O)c6ccc(C)cc6)ccc5c4)c4cc(O)cc(O)c4-c4cc3ccc4O)C(O)c3ccc(c(Cl)c3)Oc3cc2cc(c3OC2OC(CO)C(O)C(O)C2OC2CC(C)(N)C(O)C(C)O2)Oc2ccc(cc2Cl)C1O (centres unmarked) [Vanc-65] | 185 µM | 54 ± 45 µM | ≥ 250 µM | > 250 µM | MIC-fold improvement vs. vancomycin (E. faecalis VRE 37): 64; MIC-fold improvement vs. vancomycin (E. faecalis VSE 1): 4; MIC (S. aureus VISA/HIP5827): 0.78 µM (≈ 1.43 µg/mL); MIC-fold improvement vs. vancomycin (S. aureus VISA/HIP5827): 8; MIC (E. faecalis VRE 53): 25 µM (≈ 45.7 µg/mL); MIC-fold improvement vs. vancomycin (E. faecalis VRE 53): 16; MIC-fold improvement vs. vancomycin (MRSA KS6): 2; MIC (MRSA KS6): 0.39 µM (≈ 0.713 µg/mL)

Row | SMILES | MIC-fold improvement vs. vancomycin (MRSA KS89) | MIC (MRSA KS89) | MIC-fold improvement vs. vancomycin (MRSA KS2) | MIC (MRSA KS2) | MIC (E. faecalis VRE 37) | MIC (E. faecalis VRE 6) | MIC-fold improvement vs. vancomycin (E. faecalis VRE 6) | MIC [1] | MIC-fold improvement vs. vancomycin [1] | MIC-fold improvement vs. vancomycin (MRSA KS1) | MIC (MRSA KS1) | MIC (S. aureus VRSA) | MIC-fold improvement vs. vancomycin (S. aureus VRSA) | MIC (E. faecalis VRE 29) | MIC-fold improvement vs. vancomycin (E. faecalis VRE 29) | MIC (E. faecalis VSE 1) | IC50 [2] | IC50 [3] | IC50 [4] | IC50 [5] | further results
3 | CN[C@H](CC(C)C)C(=O)N[C@H]1C(=O)N[C@@H](CC(N)=O)C(=O)N[C@H]2C(=O)N[C@H]3C(=O)N[C@H](C(=O)N[C@H](C(=O)NCCNC(=O)/C=C/c4ccc(Cl)cc4)c4cc(O)cc(O)c4-c4cc3ccc4O)[C@H](O)c3ccc(c(Cl)c3)Oc3cc2cc(c3O[C@@H]2O[C@H](CO)[C@@H](O)[C@H](O)[C@H]2O[C@H]2C[C@](C)(N)[C@H](O)[C@H](C)O2)Oc2ccc(cc2Cl)[C@H]1O [Vanc-20] | 2 | 0.39 µM (≈ 0.646 µg/mL) | 4 | 0.20 µM (≈ 0.331 µg/mL) | 12.5 µM (≈ 20.7 µg/mL) | 1.56 µM (≈ 2.58 µg/mL) | 128 | 0.39 µM (≈ 0.646 µg/mL) | 2 | 2 | 0.39 µM (≈ 0.646 µg/mL) | 3.13 µM (≈ 5.18 µg/mL) | 32 | 6.25 µM (≈ 10.3 µg/mL) | 64 | 0.39 µM (≈ 0.646 µg/mL) | 121 µM | 80 ± 3 µM | 146 ± 24 µM | 138 ± 5 µM | MIC-fold improvement vs. vancomycin (E. faecalis VSE 1): 4; MIC (S. aureus VISA/HIP5827): 0.39 µM (≈ 0.646 µg/mL); MIC-fold improvement vs. vancomycin (S. aureus VISA/HIP5827): 16; MIC (E. faecalis VRE 53): 12.5 µM (≈ 20.7 µg/mL); MIC-fold improvement vs. vancomycin (E. faecalis VRE 53): 32; MIC-fold improvement vs. vancomycin (MRSA KS6): 2; MIC (MRSA KS6): 0.39 µM (≈ 0.646 µg/mL)
